Format in all cases: biochemical
Assay [1] deals with human JAK3 catalytic kinase (JH1) domain (Homo sapiens (Human), UniProt P52333). Nature of the assay: ADP-Glo Kinase Assay, recombinant JAK3 catalytic kinase (JH1) domain. Conditions: recombinant JH1 domain 0.3 nM, 4 μM ATP, JAK3-974 peptide, mean, read-out: JAK3 biochem IC50 (nM) Mean. In outline:
(§1)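 ADP-Glo luminescence with 50 μM peptide and 100 min reactions: JAK1 4 nM with JAK3-342 peptide; JAK2, JAK3 and TYK2 at 0.2, 0.3 and 2 nM with JAK3-974 peptide. Compounds tested from 10 or 1 μM top, 11 points, 3-fold. IC50 from a 4-parameter logistic fit of normalized activity.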
In general terms: ADP-Glo first removes unused ATP, then detects ADP through luciferase.

The target in assay [2] is human JAK1 catalytic kinase (JH1) domain (Homo sapiens (Human), UniProt P23458). Briefly: ADP-Glo Kinase Assay, recombinant JAK1 catalytic kinase (JH1) domain. To be noted: recombinant JH1 domain 4 nM, 35 μM ATP, JAK3-342 peptide, mean, read-out: JAK1 biochem IC50 (nM) Mean. The method in brief: as §1
human JAK1 catalytic kinase (JH1) domain, sequence (P23458 875-1153): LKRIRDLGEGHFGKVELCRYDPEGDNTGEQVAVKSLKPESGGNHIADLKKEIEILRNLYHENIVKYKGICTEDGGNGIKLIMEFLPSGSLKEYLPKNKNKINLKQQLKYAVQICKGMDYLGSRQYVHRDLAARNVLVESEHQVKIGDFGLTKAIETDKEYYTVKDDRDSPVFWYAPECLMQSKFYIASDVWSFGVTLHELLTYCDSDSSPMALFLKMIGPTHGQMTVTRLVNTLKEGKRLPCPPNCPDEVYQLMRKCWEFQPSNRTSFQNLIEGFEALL
The target of assay [3] is human TYK2 catalytic kinase (JH1) domain (Homo sapiens (Human), UniProt P29597). Briefly: ADP-Glo Kinase Assay, recombinant TYK2 catalytic kinase (JH1) domain. Conditions: recombinant JH1 domain 2 nM, 10 μM ATP, JAK3-974 peptide, mean, read-out: TYK2 biochem IC50 (nM) Mean. In outline: as §1
human TYK2 catalytic kinase (JH1) domain, sequence (P29597 897-1176): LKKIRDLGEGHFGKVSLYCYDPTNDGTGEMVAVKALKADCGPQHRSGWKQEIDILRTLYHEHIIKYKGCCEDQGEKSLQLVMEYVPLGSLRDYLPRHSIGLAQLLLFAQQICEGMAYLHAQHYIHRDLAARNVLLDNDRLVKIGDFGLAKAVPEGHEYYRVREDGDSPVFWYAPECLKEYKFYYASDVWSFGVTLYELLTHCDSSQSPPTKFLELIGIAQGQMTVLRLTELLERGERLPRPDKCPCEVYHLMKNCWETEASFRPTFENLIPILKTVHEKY
Assay [4] concerns the target human JAK2 catalytic kinase (JH1) domain (Homo sapiens (Human), UniProt O60674). Nature of the assay: ADP-Glo Kinase Assay, recombinant JAK2 catalytic kinase (JH1) domain. To be noted: recombinant JH1 domain 0.2 nM, 15 μM ATP, JAK3-974 peptide, mean, read-out: JAK2 biochem IC50 (nM) Mean. In outline:
as §1

human JAK2 catalytic kinase (JH1) domain, sequence (O60674 849-1124): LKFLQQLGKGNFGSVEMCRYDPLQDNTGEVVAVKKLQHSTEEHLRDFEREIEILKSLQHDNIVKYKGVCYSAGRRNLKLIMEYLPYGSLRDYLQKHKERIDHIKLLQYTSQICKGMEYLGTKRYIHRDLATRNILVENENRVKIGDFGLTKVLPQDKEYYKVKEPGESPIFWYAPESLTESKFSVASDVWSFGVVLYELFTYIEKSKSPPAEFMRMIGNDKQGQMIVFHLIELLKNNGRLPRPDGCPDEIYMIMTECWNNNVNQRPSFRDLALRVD
human JAK3 catalytic kinase (JH1) domain, sequence (P52333 822-1111): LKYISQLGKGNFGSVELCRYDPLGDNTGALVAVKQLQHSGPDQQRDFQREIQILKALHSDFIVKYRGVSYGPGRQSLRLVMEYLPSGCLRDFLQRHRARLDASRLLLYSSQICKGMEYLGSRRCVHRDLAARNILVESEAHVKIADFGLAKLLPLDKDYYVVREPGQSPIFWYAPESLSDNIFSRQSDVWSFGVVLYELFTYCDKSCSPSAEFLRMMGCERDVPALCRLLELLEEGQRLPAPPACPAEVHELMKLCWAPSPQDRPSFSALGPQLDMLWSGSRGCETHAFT

The term IC50 denotes the concentration needed to halve the response being measured. Consider `O=C([C@@H]1CC1(F)F)N1C2CCC1CN(c1ccnn3cc(-c4cnn(C(F)(F)F)c4)cc13)C2` [Example 19, ((S)-2,2-difluorocyclopropyl)(3-(6-(1-(trifluoromethyl)-1H-pyrazol-4-yl)pyrrolo[1,2-b]pyridazin-4-yl)-3,8-diazabicyclo[3.2.1]octan-8-yl)methanone], for which the IC50 in assay [1] stood at 518 nM; in assay [2], 34 nM; in assay [3], 2.1 nM; in assay [4], 29 nM.
On the same counts, the results for `Cn1cc(-c2cc3nccc(N4CC5CCC(C4)N5C(=O)[C@@H]4C[C@H]4F)n3n2)cn1` [Example 251, ((1S,2R)-2-fluorocyclopropyl)(3-(2-(1-methyl-1H-pyrazol-4-yl)pyrazolo[1,5-a]pyrimidin-7-yl)-3,8-diazabicyclo[3.2.1]octan-8-yl)methanone] are 2920 nM, 322 nM, 81 nM and 472 nM.
With `CNc1cc(-c2cc3c(N4CC5CCC(C4)N5C(=O)[C@@H]4C[C@H]4F)ccnn3c2)ccn1` [Example 99, ((1S,2R)-2-fluorocyclopropyl)(3-(6-(2-(methylamino)pyridin-4-yl)pyrrolo[1,2-b]pyridazin-4-yl)-3,8-diazabicyclo[3.2.1]octan-8-yl)methanone], the 50% inhibitory concentration (IC50) was 211 nM in assay [1], 10 nM in assay [2], 0.7 nM in assay [3] and 18 nM in assay [4].
As to `Cn1cc(-c2cc3c(N4CC5CCC(C4)N5S(=O)(=O)C4CC4)ncnc3[nH]2)cn1` [Example 191], the IC50 was determined as 650 nM in assay [1], 1780 nM in assay [2], 102 nM in assay [3] and 601 nM in assay [4].
As for `Cn1cc(-c2cc3c(N4CC5CCC(C4)N5C(=O)C4CCC4)ncnn3c2)cn1` [Example 67, Cyclobutyl(3-(6-(1-methyl-1H-pyrazol-4-yl)pyrrolo[2,1-f][1,2,4]triazin-4-yl)-3,8-diazabicyclo[3.2.1]octan-8-yl)methanone], the IC50 was determined as 4440 nM in assay [1], 3230 nM in assay [2], 365 nM in assay [3] and 7460 nM in assay [4].
`N#Cc1cc(-c2cc3c(N4CC5CCC(C4)N5C(=O)[C@@H]4C[C@H]4F)ncnc3[nH]2)ccn1` [Example 233, 4-(4-(8-((1S,2R)-2-fluorocyclopropane-1-carbonyl)-3,8-diazabicyclo[3.2.1]octan-3-yl)-7H-pyrrolo[2,3-d]pyrimidin-6-yl)picolinonitrile]: the half-maximal inhibitory concentration (IC50) came out at 3240 nM in assay [1], 174 nM in assay [2], 15.4 nM in assay [3] and 248 nM in assay [4].
In the case of `Cc1cncc(-c2cc3c(N4CC5CCC(C4)N5C(=O)[C@@H]4C[C@H]4F)ccnn3c2)n1` [Example 130, ((1S,2R)-2-fluorocyclopropyl)(3-(6-(6-methylpyrazin-2-yl)pyrrolo[1,2-b]pyridazin-4-yl)-3,8-diazabicyclo[3.2.1]octan-8-yl)methanone], the IC50 in assay [1] turned out to be 5420 nM; in assay [2], 806 nM; in assay [3] it was 52.8 nM; in assay [4], 674 nM.
The corresponding values for `COc1cc(-c2nc3c(N4CC5CCC(C4)N5S(=O)(=O)C4CC4)ccnc3[nH]2)ccn1` [Example 196] are 1000 nM, 216 nM, 66.3 nM and 168 nM.
Turning to `O=C(N1C2CCC1CN(c1ncnn3cc(-c4cnn(C(F)F)c4)cc13)C2)C(F)(F)F` [Example 86, 1-(3-(6-(1-(difluoromethyl)-1H-pyrazol-4-yl)pyrrolo[2,1-f][1,2,4]triazin-4-yl)-3,8-diazabicyclo[3.2.1]octan-8-yl)-2,2,2-trifluoroethan-1-one], the IC50 in assay [1] is 5090 nM; in assay [2], 1030 nM; in assay [3], 334 nM; in assay [4], 6080 nM.

These data come from patent US20240360157A1, “TYK2 INHIBITORS” (BIOGEN MA INC., priority 2021, published 2024).
